From patent US11445724B2, “Insecticidal compounds” (SYNGENTA PARTICIPATIONS AG, priority 2013, dated 2022)

Legend:
Format in all cases: in vivo
[1] = system: Myzus persicae (Green peach aphid); experiment: Myzus persicae (Green peach aphid) mortality, test compounds mixed with Sucrose solution under Parafilm; details: 120 h, 12.5 ppm in Sucrose solution, infested pea seedlings on Parafilm, mortality 5 days after infestation
[2] = system: Plutella xylostella (Diamond back moth); experiment: Plutella xylostella (Diamond back moth) larval mortality, artificial diet in 24-well MTP; details: 144 h, application rate 200 ppm (concentration in well 18 ppm), L2 larvae, larval mortality after 6 days
[3] = system: Myzus persicae (Green peach aphid); experiment: Myzus persicae (Green peach aphid) mortality, sprayed sunflower leaf discs; details: foliar, 144 h, 200 ppm spray on sunflower leaf discs, mixed ages, mortality 6 DAT
[4] = system: Spodoptera littoralis (Egyptian cotton leafworm); experiment: Spodoptera littoralis (Egyptian cotton leafworm) mortality, sprayed cotton leaf discs; details: foliar, 72 h, 200 ppm spray on cotton leaf discs, L1 larvae, mortality 3 DAT
[5] = system: Thrips tabaci (Onion thrips); experiment: Thrips tabaci (Onion thrips) mortality, sprayed sunflower leaf discs; details: foliar, 168 h, 200 ppm spray on sunflower leaf discs, mixed ages, mortality after 7 days
[6] = system: Diabrotica balteata (Corn root worm); experiment: Diabrotica balteata (Corn root worm) larval mortality, artificial diet in 24-well MTP; details: 120 h, application rate 200 ppm (concentration in well 18 ppm), L2 larvae, larval mortality after 5 days

COc1c(NC(=O)c2ccc(C)cc2)cccc1C(=O)Nc1c(Br)cc(C(F)(C(F)(F)F)C(F)(F)F)cc1OC(F)F [Compound 41]
≥ 80%: pest or weed control at 12.5 ppm [1] | pest or weed control at 200 ppm [2] | pest or weed control at 200 ppm [3] | pest or weed control at 200 ppm [4] | pest or weed control at 200 ppm [5] | pest or weed control at 200 ppm [6]

O=C(Nc1cccc(C(=O)Nc2c(Cl)cc(C(F)(C(F)(F)F)C(F)(F)F)cc2OC(F)F)c1F)c1ccccc1F [Compound 45]
≥ 80%: pest or weed control at 12.5 ppm [1] | pest or weed control at 200 ppm [2] | pest or weed control at 200 ppm [3] | pest or weed control at 200 ppm [4] | pest or weed control at 200 ppm [5] | pest or weed control at 200 ppm [6]

COc1c(NC(=O)c2ccccc2OC(F)(F)F)cccc1C(=O)Nc1c(Br)cc(C(F)(C(F)(F)F)C(F)(F)F)cc1OC(F)F [Compound 56]
≥ 80%: pest or weed control at 12.5 ppm [1] | pest or weed control at 200 ppm [2] | pest or weed control at 200 ppm [3] | pest or weed control at 200 ppm [4] | pest or weed control at 200 ppm [5] | pest or weed control at 200 ppm [6]

CCN(C(=O)c1ccc(C(F)(F)F)cc1)c1cccc(C(=O)Nc2c(Br)cc(C(F)(C(F)(F)F)C(F)(F)F)cc2OC(F)F)c1F [Compound 105]
≥ 80%: pest or weed control at 12.5 ppm [1] | pest or weed control at 200 ppm [2] | pest or weed control at 200 ppm [3] | pest or weed control at 200 ppm [4] | pest or weed control at 200 ppm [5] | pest or weed control at 200 ppm [6]

CCN(C(=O)c1ccccc1F)c1cccc(C(=O)Nc2c(Cl)cc(C(F)(C(F)(F)F)C(F)(F)F)cc2OC(F)F)c1F [Compound 111]
≥ 80%: pest or weed control at 12.5 ppm [1] | pest or weed control at 200 ppm [2] | pest or weed control at 200 ppm [3] | pest or weed control at 200 ppm [4] | pest or weed control at 200 ppm [5] | pest or weed control at 200 ppm [6]

CCN(C(=O)c1cc(Cl)ccc1F)c1cccc(C(=O)Nc2c(Cl)cc(C(F)(C(F)(F)F)C(F)(F)F)cc2OC(F)F)c1F [Compound 115]
≥ 80%: pest or weed control at 12.5 ppm [1] | pest or weed control at 200 ppm [2] | pest or weed control at 200 ppm [4] | pest or weed control at 200 ppm [5] | pest or weed control at 200 ppm [6]

CCN(C(=O)c1ccc(C(F)(F)F)cc1)c1cccc(C(=O)Nc2c(Cl)cc(C(F)(C(F)(F)F)C(F)(F)F)cc2OC(F)F)c1F [Compound 117]
≥ 80%: pest or weed control at 12.5 ppm [1] | pest or weed control at 200 ppm [2] | pest or weed control at 200 ppm [4] | pest or weed control at 200 ppm [5] | pest or weed control at 200 ppm [6]

CCN(C(=O)c1cccc(F)c1F)c1cccc(C(=O)Nc2c(Cl)cc(C(F)(C(F)(F)F)C(F)(F)F)cc2OC(F)F)c1F [Compound 123]
≥ 80%: pest or weed control at 12.5 ppm [1] | pest or weed control at 200 ppm [2] | pest or weed control at 200 ppm [3] | pest or weed control at 200 ppm [4] | pest or weed control at 200 ppm [5] | pest or weed control at 200 ppm [6]

CCN(C(=O)c1ccccc1F)c1cccc(C(=O)Nc2c(Br)cc(C(F)(C(F)(F)F)C(F)(F)F)cc2OC(F)F)c1F [Compound 125]
≥ 80%: pest or weed control at 12.5 ppm [1] | pest or weed control at 200 ppm [2] | pest or weed control at 200 ppm [3] | pest or weed control at 200 ppm [4] | pest or weed control at 200 ppm [5] | pest or weed control at 200 ppm [6]

CCN(C(=O)c1ccccc1C)c1cccc(C(=O)Nc2c(Br)cc(C(F)(C(F)(F)F)C(F)(F)F)cc2OC(F)F)c1F [Compound 126]
≥ 80%: pest or weed control at 12.5 ppm [1] | pest or weed control at 200 ppm [2] | pest or weed control at 200 ppm [4] | pest or weed control at 200 ppm [5] | pest or weed control at 200 ppm [6]

CCN(C(=O)c1ccc(F)cc1F)c1cccc(C(=O)Nc2c(Cl)cc(C(F)(C(F)(F)F)C(F)(F)F)cc2OC(F)F)c1OC [Compound 160]
≥ 80%: pest or weed control at 12.5 ppm [1] | pest or weed control at 200 ppm [2] | pest or weed control at 200 ppm [4] | pest or weed control at 200 ppm [5] | pest or weed control at 200 ppm [6]
